# Results taken from the COVID Moonshot data (paper PMC11187573), “Identification of SARS-CoV-2 Mpro inhibitors through deep reinforcement learning for de novo drug design and computational chemistry approaches” (RSC Medicinal Chemistry, 2024).
# How the values were obtained:
# [1] = target: SARS-CoV-2 Main Protease (SARS-CoV-2) (UniProt P0DTD1)
# [2] = target: SARS-CoV-2 Main Protease (SARS-CoV-2) (UniProt P0DTD1); remark: listed apart in the source
SMILES,IC50 [1] [µM],inhibition ([1]; 50.0 µM) [%],relative solubility at 20 uM,relative solubility at 100 uM,inhibition ([2]; 20.0 µM) [%],inhibition ([2]; 50.0 µM) [%],inhibition ([1]; 20.0 µM) [%],IC50 [2] [µM]
COCc1cc(Cl)cc(CN2CCN(C(=O)CCl)CC2)c1,1.31,118,0.98,0.99,97.6,99.9,–,–
C=CC(=O)N(c1ccc(C(C)(C)C)cc1)C(C(=O)Nc1ccc(OC)cc1)c1cccnc1 (centres undefined),–,0,0.95,0.71,–,12,0,–
O=C(Cn1c(=O)[nH]c2ccccc21)Nc1cccc(Cl)c1,–,0,1,0.64,-4.28,-9.78,–,–
O=C(Nc1nnc(-c2ccccn2)o1)C1CCN(S(=O)(=O)c2ccc(F)cc2)CC1,–,0,0.95,0.96,3.87,-71,–,–
C=CC(=O)N(c1ccc(C(C)(C)C)cc1)C(C(=O)NC(C)(C)C)c1cncc(C(C)(F)F)c1 (centres undefined),–,0,0.99,0.96,-11.5,-15.5,0,–
CC(C)N(C)CC1CCN(c2ccc(S(N)(=O)=O)cc2)CC1,–,0,1,0.99,–,-17.8,0,–
C=CC(=O)N(c1ccc(C(C)(C)C)cc1)C(C(=O)NCc1ccccc1)c1cccnc1 (centres undefined),14.3,100,0.99,0.89,42.3,66.6,69.1,–
O=C(c1cc(=O)[nH]c2ccccc12)N1CCN(Cc2ccccc2)CC1,18.8,82.4,0.99,1,74.5,87.8,–,–
O=C(Cc1ccc(O)cc1)Nc1cccc2cc[nH]c12,–,0,1,1,-9.57,-4.9,–,–
O=C(Nc1ccc([N+](=O)[O-])cc1Cl)c1cccc(Cl)c1,–,–,0.76,0.57,-10.8,-11.4,1.31,–
CCOCC1CCN(c2ccc(S(N)(=O)=O)cc2)CC1,–,44.6,1,1,–,7.41,21.8,–
C=CC(=O)N(c1cc(C(C)(C)C)on1)C(C(=O)NCCc1cccc(F)c1)c1cncc(Cl)c1 (centres undefined),4.78,100,0.97,0.56,15.8,40.2,–,–
CCc1nnnn1-c1ccccc1NC(=O)C1(c2cncc(Br)c2)CC1,–,0,1,1,–,10.2,0,–
CCCSCC(=O)C(C#N)C(=O)Nc1ccc(F)cc1F (centres undefined),–,3.54,1.01,1.01,–,21.8,3.06,–
COC(=O)c1sc(NS(=O)(=O)c2ccc(CF)cc2)nc1C(C)(C)C,–,0,1,0.99,–,-7.77,0,–
COC(=O)C(c1ccccc1Cl)N1CCC2SC(=O)C=C2C1 (centres undefined),–,11.5,0.82,0.81,-46.2,-5.13,–,–
C=CC(=O)N(c1ccc(C2(C)CC2)cc1)C(C(=O)Nc1cccc(F)c1C)c1cccnc1 (centres undefined),–,1.04,1,1,–,34.7,0,–
O=C(CCl)N1CCCC(c2nc(-c3cccnc3)nc3ccccc23)C1 (centres undefined),–,100,0.9,0.89,7.84,31.8,–,–
C=CC(=O)N(c1ccc(C(F)(F)F)cc1)C(C(=O)NCCc1cccc(F)c1)c1cccnc1 (centres undefined),6.12,100,0.99,0.94,50.7,72.7,–,–
O=C(Nc1cccnc1)Nc1ccc(Cl)s1,–,35.7,0.99,0.95,8.85,23.7,0,–
O=C(NCC1COc2ccccc2O1)c1cc(=O)[nH]c2ccc(F)cc12 (centres undefined),–,16.4,1,0.79,3.84,18.6,–,–
O=C(CNc1c(-c2ccccc2)nc2ccccn12)N/N=C/c1cccc2ccccc12,–,7.53,0.5,0.5,13.8,17.8,–,–
O=C(C(F)Cl)N1CCCC(c2nc3ccccc3s2)C1 (centres undefined),–,0,0.99,0.99,7.1,16.2,0,–
N#Cc1ncccc1NC(=O)Cc1cccc(Cl)c1,–,0,0.99,1,-10.2,-15.7,0,–
CN(C)c1ncccc1N(C)C(=O)C1CCOc2ccc(Cl)cc21 (centres undefined),–,0,1,0.99,1.42,-4.96,–,–

SMILES,IC50 [1] [µM],inhibition ([1]; 50.0 µM) [%],relative solubility at 20 uM,relative solubility at 100 uM,inhibition ([2]; 20.0 µM) [%],inhibition ([2]; 50.0 µM) [%],inhibition ([1]; 20.0 µM) [%],IC50 [2] [µM]
O=C(Cc1ccc(F)cc1)Nc1cccc2cc[nH]c12,–,0,1,0.88,-2.43,-33.9,–,–
CN(C)c1ccc(N(Cc2ccsc2)C(=O)Cn2nnc3ccccc32)cc1,5.37,90.3,0.92,0.48,84.4,90.5,–,–
CNCc1c[nH]c2ccc(F)cc12,–,16.1,0.99,1,–,32.7,3.09,–
NC(=O)CCN(C(=O)CCl)C1CCS(=O)(=O)C1 (centres undefined),–,34.1,1,1,–,18.6,16.3,–
O=C(CCl)N1CCC(c2nc(-c3cccnc3)nc3ccccc23)CC1,14.9,100,0.92,0.8,56.8,71.5,–,–
CC(C(=O)Nc1cccc(NC2CCCC2)c1)c1cnccn1 (centres undefined),–,-2.15,1,0.98,-2.77,0.913,0,–
O=C(NCc1noc2ccccc12)c1ccccc1OCC1CC1,–,0,1,0.64,5.31,11.7,0,–
C=CC(=O)N(c1ccc(C(C)(C)C)cc1)C(C(=O)NCCCSC)c1cccnc1 (centres undefined),13.7,100,1,1,50.3,75.6,70,–
O=C(c1ccccc1)N1CCN(C(=O)c2nn(-c3ccccc3C(F)(F)F)cc2O)CC1,–,0,0.99,0.95,-48,-1.44,–,–
Cc1ccncc1NC(=O)CN1C(=O)COc2ccc(Cl)cc21,38.9,67.2,0.99,0.99,32.8,49.3,–,–
CNC(=O)OC1CCN(S(=O)(=O)c2ccccc2)CC1,–,0,1,1,–,-16.3,4.89,–
CC(NC(=O)c1ccc2cn[nH]c2c1)C(=O)Nc1ccc(-n2cnc3ccccc32)cc1 (centres undefined),–,12.8,0.7,0.51,13,3.73,–,–
O=C(NCCN1CCN(C(=O)CCl)CC1)c1ccccc1,–,–,1,1.01,0.205,18.1,0.871,–
C=CC(=O)N1CCN(Cc2cccc3ccccc23)CC1,–,–,1,0.99,-4.32,3.35,0,–
O=C(Cc1cc(Cl)c2c(c1)OCCO2)Nc1cnccc1-c1ccccc1,–,0,0.88,0.94,-45.1,-10.4,–,–
Cc1ccncc1-c1ccc(S(N)(=O)=O)cc1,–,-2.15,1,1,–,8.58,-2.96,–
CN(C)C(=O)C[C@@H]1CN(C(=O)c2cnn3c2CCC3)c2ccc(Cl)cc21 (stereo in doubt),–,–,1,1,-17.5,-10.8,0,–
Cc1cc(Cl)cc(NC(=O)Nc2cccnc2)c1,–,35.4,1,1,–,12.7,0,–
Cn1cc(S(N)(=O)=O)cc1CC(=O)Nc1cccc(C(=O)NCc2ccccn2)c1,–,0,1,1,-21.5,-0.596,–,–
CC(NC(=O)CCl)c1cc(Cl)cc(-c2ccc(S(N)(=O)=O)cc2)c1 (centres undefined),0.526,79,0.99,0.99,98.4,94.6,–,–
Cc1ccncc1NC(=O)Cc1cncc(Cl)c1,–,71.4,1,1.01,28.8,46,–,–
C=CC(=O)N(c1cc(C(C)(C)C)on1)C(C(=O)NCCc1cccc(F)c1)c1cncc(C)c1 (centres undefined),–,0,1,0.91,17.5,24.8,–,–
CCCN(CC1COc2ccccc2O1)C(=O)c1cc(=O)[nH]c2cc(F)ccc12 (centres undefined),–,0,0.98,0.98,5.21,8.33,–,–
Cc1cccc(NC(=O)C(C#N)C(=O)C2CCCC2)c1 (centres undefined),–,0,1,1,–,-8.28,0.78,–
O=C(C1CCN(S(=O)(=O)c2ccccc2)CC1)N1CCOCC1,–,0,1,0.99,1.87,5.52,0,–

SMILES,IC50 [1] [µM],inhibition ([1]; 50.0 µM) [%],relative solubility at 20 uM,relative solubility at 100 uM,inhibition ([2]; 20.0 µM) [%],inhibition ([2]; 50.0 µM) [%],inhibition ([1]; 20.0 µM) [%],IC50 [2] [µM]
CCCc1cc2c(cc1S(=O)(=O)N1CCN(c3ccccc3)CC1)OCO2,16,68.3,0.91,0.92,8.44,-17.1,–,–
O=C(CCl)N1CCN(S(=O)(=O)c2cccs2)CC1,0.557,97.8,1,1,99.3,99.6,97.9,–
Cc1nnc(CNC(=O)C2CCOc3ccc(Cl)cc32)n1C1CC1 (centres undefined),–,0,1,1,6.91,0.282,–,–
CCOc1ccccc1OC1CCN(C(=O)c2cc(=O)[nH]c3ccc(F)cc23)C1 (centres undefined),–,0,1,0.99,6.76,18.2,–,–
NC1=Nc2nc3ccccc3n2C(c2ccc(-c3nc4ccccc4s3)o2)N1 (centres undefined),–,38.8,0.53,0.23,-25.2,-3.34,–,–
O=C(CCl)N1CCC(C(=O)N2CCCCC2)CC1,–,–,1,1,18.5,31.4,0.506,–
O=C1C(=O)N(Cc2ccc(Br)cc2)c2c(Br)cccc21,0.485,100,0.99,0.97,1.5,-1.15,–,–
CCC(NC(=O)NCc1cnccn1)c1ccccc1OCC(=O)N1CCCC1 (centres undefined),–,9.2,1,1,–,7.61,0,–
O=C(CCl)N1CCN(C(c2ccccc2)C2CCOCC2)CC1 (centres undefined),1.69,84.8,1,0.99,80.8,103,–,20.7
C=CC(=O)N(c1ccc(N(C)C)c(C)c1)C(C(=O)Nc1cccc(CC)c1)c1cccnc1 (centres undefined),–,–,0.85,0.68,7.05,11.7,0,–
Cc1[nH]ncc1NC(=O)Cc1cccc(Cl)c1,–,52.1,0.99,1,3.64,6.93,–,–
Cc1ccncc1NC(=O)Cc1cccc(F)c1,–,40.9,1.01,1,39.6,65.3,–,–
C=CC(=O)N(c1ccc(SC)cc1)C(C(=O)Nc1ccc(OC)cc1C)c1cccnc1 (centres undefined),–,–,0.95,0.84,8.27,22.2,0,–
C=CC(=O)N(c1ccc(C(C)(C)C)cc1)C(C(=O)NC(C)(C)C)c1cncc(Br)c1 (centres undefined),–,0,0.99,0.97,14.6,-13.8,0,–
COc1ccccc1OCCNC(=O)c1cc(=O)[nH]c2ccc(Cl)cc12,–,23,0.93,0.66,-2.31,34.1,–,–
O=C(Nc1cccnc1)Nc1cccc(Cl)c1,–,44.1,0.98,0.99,12.9,30.9,–,–
NS(=O)(=O)c1ccc(N2CCC(CN3CCCCCC3)CC2)cc1,–,5.22,0.99,0.91,-5.53,-0.987,-2.46,–
C=CC(=O)N(c1ccc(C(C)(C)C)cc1)C(C(=O)NCCc1cccc(F)c1)c1cccnc1 (centres undefined),3.36,100,0.98,0.55,63.3,83.4,91.8,–
O=C(CCl)N1CCCC(N(CC2CCCCC2)C2CCC(O)CC2)C1 (centres undefined),–,24.9,1,1,-11.8,7.36,–,–
Cn1nncc1CC(=O)NC(c1ccccc1)c1nc2ccccc2n1C (centres undefined),–,0,1,1,–,54.1,0,–
O=S(=O)(Cc1ccc(F)cc1)Nc1cccnc1,–,-5.13,1,1,6.67,-13.8,–,–
C=CC(=O)N(C1CCC2(CCCC2)C1)C(C(=O)NC(C)(C)C)c1cccnc1 (centres undefined),–,–,0.98,0.99,5.22,6.35,0,–
Cc1ncc2c(n1)CCC(NC(=O)NCc1cccc(N3C(=O)NC4(CCCC4)C3=O)c1)C2 (centres undefined),–,0,0.99,0.97,-7.81,-6.65,–,–
CCN(CC1COc2ccccc2O1)C(=O)c1cc(=O)[nH]c2ccc(Cl)cc12 (centres undefined),–,0,0.95,0.89,8.72,2.69,–,–
